Laboratory results as given in US10647720B2 (Asana Biosciences, LLC, priority 2011, dated 2020).
pEC50, pIC50: −log10 of the molar value.

How the values were obtained:
[1] = target: Syk (356-635 amino acids)-catalytic domain (Homo sapiens (Human), UniProt P43405); assay: Inhibition of enzymatic Syk kinase activity (radiometric); type: biochemical
Excerpt: The objective of this assay was to examine by radiometric method the ability of compounds to inhibit Syk kinase enzyme. Syk is capable of phosphorylating substrates such as VAV, LAT, SLP-76, which in turn activate MAPK, PLCγ signaling pathways. […] This in vitro assay tests the ability of syk to phosphorylate a substrate peptide in the presence of ATP. By using a radio-labeled form of ATP, it is possible to measure the amount of phosphorylation of the substrate. The enzyme transfers a radio-labeled phosphate group from γ32 P labeled ATP to pG4T. Briefly the enzyme was incubated with substrate, radio-labeled & cold ATP and substrate in buffer with or without compounds. At the end of the reaction, the reaction mixture was transferred on to a Multiscreen filter plate and unreacted γ^32P ATP was washed off. The filter plate was dried and the radioactivity was measured on a scintillation counter to estimate the incorporated radioactivity on the substrate. The percent inhibition of activity of the enzyme was calculated by comparing counts in the presence and absence of compounds. […] Microscint-O® reagent (100 μL, Perkin Elmer) was added to each well, the plate was sealed with Topseal®-A microplates and incubated for 10 minutes at room temperature at very low speed on rocker and the plate was read in the Topcount® NXL instrument.

JAK2 = JAK2 (Homo sapiens (Human), UniProt O60674); assay: Inhibition of enzymatic JAK2 kinase activity (TR-FRET); type: biochemical
Excerpt: The objective of this assay was to screen compounds in a Time-resolved fluorescence resonance energy transfer (TR-FRET) Enzymatic assay method for their potential to inhibit JAK2 (Janus kinase) activity.
TR-FRET assays are homogeneous proximity assays where Eu-labeled antiphosphotyrosine antibody binds to the phosphorylated substrates labeled with Ulight fluorescence acceptor. Eu can transfer energy to Ulight accepter in the complex and the interaction of two dye-labeled binding partners is detected by the energy transfer between a donor and an acceptor dye, and the subsequent light emission by the acceptor dye. The intensity of the light emission is proportional to the level of Ulight peptide phosphorylation.
Two μL of 10% DMSO in blank, substrate control and positive control wells and 2 μL of test compound in test wells was added. Thirteen μL of assay buffer in blank and substrate control wells and 13 μL of Enzyme buffer mix in positive and test wells was added. The reaction mixture was incubated for 30 minutes at RT on a plate shaker. […] The reaction plate was incubated for 60 minutes at RT on a plate shaker. The reaction was stopped by adding 40 mM EDTA (10 μL) in buffer. Ten μL of antibody was added to all the wells. The plate was read in a Wallac® 1420 Multilabel Counter Victor 3 instrument (Ex: 340 nm Em: 615 & 665 nm) The following calculations were made:
F@ 665 Value-Buffer blank […]

RBL2H3 cells = assay: Degranulation assay: β-hexosaminidase release during immune complex mediated degranulation; type: cell-based, Rat
Experimental: The objective of this assay was to examine by Fluorescence method the effect of compounds on β-hexosaminidase release during immune complex mediated degranulation in RBL2H3 cells. Compounds were tested for their ability to inhibit the ability of this immune complex to mediate β-hexosaminidase release, in an enzyme assay with p-nitrophenyl-β-D-glucosaminide as substrate. […] Emission 460 nm). RBL2H3 cells were maintained in MEM complete media containing 10% FBS at 70%-80% confluence in a mammalian cell culture CO2 incubator with 5% CO2 at 37° C. 2×10^5 cells/well were plated in 1 mL of complete media and incubated for 5 hours for cell attachment. Complete media was replaced with 1 mL of serum free MEM media containing 1.2 μg/mL of anti-DNP rat IgE as sensitizing agent and further incubated overnight with 5% CO2 at 37° C. […] Cells were further stimulated with 5 μg/mL of DNP-BSA for 60 minutes. Plates were centrifuged for 5 minutes at 1000 rpm and 25 μL of culture supernatant was transferred from each assay well into a 96 well black coated plate. 25 μL β-NAG substrate was added to this mixture and incubated at room temperature for 30 minutes. The reaction was terminated with 100 μL of stop solution and fluorescence was monitored. (Excitation 355 nm; Emission 460 nm) See, Sanderson, (2010), Cellular Immunology, 262(1): 28-34 and Silverman, (2006) MCB, 26(5):1826-1838, which are incorporated herein by reference. The % release of β-Hexosaminidase for the test compound was calculated using the following formula: RBL2H3 cells were maintained in MEM complete media containing 10% FBS at 70-80% confluence in a mammalian cell culture CO2 incubator with 5% CO2 at 37° C. 5×10^4 cells/well were plated in 200 μL of complete media containing 0.3 μg/mL of anti-DNP rat IgE as sensitizing agent for 24 hours at 37° C. & 5% CO2. The following day, cells were washed twice with PIPES buffer for 10 minutes at 37° C. and replenished with serum free MEM media. […] After incubation with substrate, 150 μL of stop solution was added and fluorescence was monitored. […]

[2] = tested on: Collagen Induced Arthritis (CIA) in female Lewis rats; assay: In vivo chronic study: Collagen Induced Arthritis (CIA); set-up: species or system rat; conditions: 0.5 mg/Kg
Experimental: Female Lewis rats (8 per group, 6-8 weeks old) were immunized on day 1 with type II collagen (Immunization grade Bovine type II; Chondrex; Cat #20021) emulsified with Complete Freund's Adjuvant (Sigma; Cat # F5881) at a final concentration of 1.2 mg/mL). For the initial immunization, the animals were injected at the base of the tail with 300 μg of the cII (0.25 mL/rat). A booster injection of the same type II collagen emulsified with Incomplete Freund's Adjuvant (Sigma, Cat #F5506) (0.25 mL/rat) was given to the animals on day 8 at the base of the tail (100 μg). The final cII concentration in the booster was […]. […]
Edema: Paw volumes are measured by Plethysmometry for the animals before induction of CIA (Basal readings) and on Day 1, 3, 6 and 9 of dosing period. Both hind paw volumes were measured and edema was calculated by subtracting from the basal mean.
Arthritic score: Animals were scored for the symptoms of arthritis every day starting from Day of onset of disease till the end of the study. Both the hind paws were scored and the total scores were averaged and compared with control. […]
The percent inhibition of Edema was calculated with respect to control by the formula: […]
The percent inhibition of Arthritic score was calculated with respect to control by the formula: […]

JAK2, sequence (O60674 808-1132): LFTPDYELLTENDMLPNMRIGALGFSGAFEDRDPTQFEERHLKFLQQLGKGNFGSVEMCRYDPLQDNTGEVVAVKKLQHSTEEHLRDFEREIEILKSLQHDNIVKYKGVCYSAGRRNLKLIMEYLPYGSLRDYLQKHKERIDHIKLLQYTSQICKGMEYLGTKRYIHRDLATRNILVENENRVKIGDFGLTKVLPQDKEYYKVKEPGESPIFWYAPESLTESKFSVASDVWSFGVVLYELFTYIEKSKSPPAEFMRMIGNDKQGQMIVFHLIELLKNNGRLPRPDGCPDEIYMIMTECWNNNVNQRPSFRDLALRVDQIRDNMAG

O=c1[nH]ncc2nc(N3CCCCCC3)nc(Nc3ccc(N4CCN(CCO)CC4)cc3)c12 [Example 190, 2-(azepan-1-yl)-4-((4-(4-(2-hydroxyethyl)piperazin-1-yl)-phenyl)amino)pyrimido[4,5-d]-pyridazin-5(6H)-one]
pIC50 [1]: > 8.00
pIC50 (JAK2): > 8.00
inhibition at 1 µM (RBL2H3 cells; Rattus norvegicus, RBL-2H3, 1 μM, Assay Protocol B (96 well format)): 83%
pEC50 (RBL2H3 cells; Rattus norvegicus, RBL-2H3, Assay Protocol B (96 well format)): 7.68

N=Cc1nc(N2CCCCCC2)nc(Nc2ccc(N3CCCC(CC(=O)O)C3)cc2)c1C(N)=O (stereo not shown) [Example 232]
Degranulation % inhibition at 1 μM (RBL2H3 cells; 1 μM, Assay Protocol B (96 well format)): 0%

CN(Cc1cnc2nc(N)nc(N)c2n1)c1ccc(C(=O)N[C@@H](CCC(=O)O)C(=O)O)cc1 [Methotrexate, methotrexate]
Percent inhibition of Edema (Day 9 of dosing) ([2]; Day 9 of dosing): 6%
Percent inhibition of Arthritic score (Day 10 of dosing) ([2]; Day 10 of dosing): 15%
